Data from US11969730B2, “Apparatus for sensor-based examination of biological cells” (FRAUNHOFER-GESELLSCHAFT ZUR FÖRDERUNG DER ANGEWANDTEN …, priority 2017, dated 2024).

Key:
[1] = test system: HaCaT cells; test: impedimetric toxicity study (cytotoxicity assay) with confluent HaCaT cells on electrode array; format: cell-based, human; conditions: 32 kHz; increasing concentrations; applied 24 h after thawing or seeding; 37° C.; cryopreserved (7 days, −80° C.) and newly seeded cells
Method: IZI at 32 kHz for confluent HaCaT cells that were incubated (cytotoxicity assay) at the time t=0 h with increasing concentrations of CdCl2.
The cell density was identical in both cases. Increasing concentrations of the heavy metal salt CdCl2 served as the chemical model toxin. The assay was carried out 24 h after thawing, respectively seeding.
The cell response to the addition of CdCl2 is documented with reference to the time profile of the normed impedance at a measurement frequency of 32 kHz. […] The time developments, also highly characteristic of the impedance after the addition of CdCl2 to the confluent cell layers for every concentration of CdCl2 for the cryopreserved cells are indistinguishably similar to those of the newly seeded cells.

[2] = test system: HaCaT cells; test: impedimetric readout of adhesion of HaCaT cells to the electrode surface after cryopreservation and thawing; format: cell-based, human; conditions: 10% by volume in the freezing medium; cryopreservation over 5 weeks at −80° C.; capacitance at 40 kHz
Method: The cell density on the sensor surface is 450,000 cells/cm^2 (T=37° C.) in both cases. The decrease in the capacitance reflects the increasing electrode coverage.
To check the viability state of the frozen cells and then thawed again, the kinetics of the adhesion of human skin cells (keratinocytes, HaCaT cells) to the electrode surface (of gold) after a cryopreservation of more than five weeks at −80° C. were tracked directly after thawing (revitalization) with time resolution via an impedimetric readout (see FIG. 2A). The time development of the capacitance C of the total system at a measurement frequency of 40 kHz is in linear dependence on the occupation of the electrode with adherent cells and thus reflects the progressing process of the cell adhesion.
The culture medium is modeled on the freezing medium after revitalizing the cells in the chemical composition. Variable DMSO contents were selected to freeze the cells to be able to directly optimize the freezing medium for the respective cell line.

| Compound | time profile of the normed impedance after addition of CdCl2 [1] | effect on the cell viability after thawing [2] |
| --- | --- | --- |
| [Cl][Cd][Cl] [CdCl2] | decreases in dependence on the dosage |  |
| C[S+](C)[O-] [DMSO] |  | no negative effect |
